Key:
[1] = molecular target: mouse CLEC-2 (Fc-mCLEC-2) (Mus musculus, UniProt Q9JL99); test: biochemical
[2] = molecular target: human CLEC-2 (hFc-CLEC-2) (Homo sapiens, UniProt Q9P126); test: biochemical
human CLEC-2 (hFc-CLEC-2), sequence (Q9P126 55-229 limits assumed): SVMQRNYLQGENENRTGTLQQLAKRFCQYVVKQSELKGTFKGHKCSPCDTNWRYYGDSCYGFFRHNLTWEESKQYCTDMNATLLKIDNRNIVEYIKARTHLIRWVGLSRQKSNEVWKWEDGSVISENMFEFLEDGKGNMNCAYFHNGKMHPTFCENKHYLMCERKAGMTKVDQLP

mouse CLEC-2 (Fc-mCLEC-2), sequence (Q9JL99 53-229 limits assumed): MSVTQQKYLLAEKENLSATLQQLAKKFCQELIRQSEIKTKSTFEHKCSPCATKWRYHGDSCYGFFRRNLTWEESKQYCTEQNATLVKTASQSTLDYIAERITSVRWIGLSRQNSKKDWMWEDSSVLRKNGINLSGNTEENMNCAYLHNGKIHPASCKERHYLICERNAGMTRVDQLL

Kd [1]: ~200 nM | Kd [2]: ~200 nM
Compound: C=CC1=C(C)C2=Cc3c(C=C)c(C)c4[n]3[Fe]([Cl])[n]3c(c(C)c(CCC(=O)O)c3=CC3=NC(=C4)C(C)=C3CCC(=O)O)=CC1=N2 [hemin]

— paper PMC7849553 (Haematologica, 2020)
